From paper PMC8596843, “Platinum Cyclooctadiene Complexes with Activity against Gram‐positive Bacteria” (Chemmedchem, 2021)
Read-outs that look alike come from different tables or passages of the source.

Assays:
[1] = tested on: Acinetobacter baumannii ATCC 19606; test: Antibacterial MIC assay; assay type: cell-based; conditions: CO‐ADD screening
Experimental: (§1) All compounds submitted to CO‐ADD are initially screened against five bacterial strains (Staphylococcus aureus (MRSA), E. coli, Klebsiella pneumoniae, Pseudomonas aeruginosa, Acinetobacter baumannii) and two fungal strains (Candida albicans, Cryptococcus neoformans) at a single concentration (32 μg/mL or 20 μM) performed as a high‐throughput primary screening.[[11], [17a]] Any compounds that show significant growth inhibition against any of the tested strains at this step are then evaluated in a dose‐response assay against these same strains. […]
(§2) Smiles: C1C=CCCC(=CC1)C1=CCCC=CCC1.C[Pt]C.C[Pt]C […]
(§3) ATCC strains were sourced from the American Type Culture Collection and NRS strains from NARSA (Network on Antimicrobial Resistance in Staphylococcus aureus) via BEI Resources (www.beiresources.org), with clinical MSSA and MRSA isolates from Prof Graeme Nimmo, Queensland […]
(§4) Health Central Pathology. […]
(§5) Antibacterial minimum inhibitory concentration (MIC) assay
(§6) Compound Assay Plate Preparation: Compounds were dissolved in DMSO at 10mM (CO-ADD screening) or 4 mM (follow up screening) and were plated in a 2-fold dose response from 20 to 0.156 µM or 200 to 0.006 µM respectively, with a maximum of 0.5% or 1% DMSO, final in the assay […]
(§7) plated in a 2-fold dose response from 200 to 0.006 µM, with a maximum of 1 % DMSO, final in the assay concentration. (in-house screening)
(§8) For all the bacterial assays, each strain was cultured in Cation-adjusted Mueller Hinton broth (CAMHB; Bacto Laboratories 212322) at 37 °C overnight. A sample of each culture was then diluted 40-fold in fresh CAMHB and incubated at 37 °C for 1.5–3 h. The resultant mid-log phase cultures were diluted with CAMHB (CFU mL−1 measured by OD600), then added to each well of the compound-containing plates (384-well non-binding surface (NBS) plates; Corning CLS3640), giving a cell density of 5 × 10^5 CFU mL−1 and a total volume of 50 μL. Plates were covered and incubated at 37 °C for 18 h without shaking. Inhibition of bacterial growth was determined measuring absorbance at 600 nm (OD600), using media only as negative control and bacteria without inhibitors as positive control. MIC values were determined as the lowest concentration at which the growth was inhibited at ≥80%. Colistin sulfate (Sigma C4461) and vancomycin HCl (Sigma 861987) were used as internal controls on each plate for Gram-negative and Gram-positive bacteria, respectively. […]

[2] = tested on: Escherichia coli ATCC 25922; test: Antibacterial MIC assay; assay type: cell-based; conditions: CO‐ADD screening
Experimental: as §1, §2, §3, §4, §5, §6, §7, §8

[3] = tested on: Pseudomonas aeruginosa ATCC 27853; test: Antibacterial MIC assay; assay type: cell-based; conditions: CO‐ADD screening
Experimental: as §1, §2, §3, §4, §5, §6, §7, §8

[4] = tested on: Klebsiella pneumoniae ATCC 700603 (ESBL SHV‐18)
Experimental: as §1, §2, §3, §4, §5, §6, §7, §8

[5] = tested on: E. coli lpxC (non‐efficient lipid A production mutant); test: MIC against E. coli membrane mutants; assay type: cell-based, Escherichia coli
Experimental: as §5
(§9) concentration. (in-house screening)
(§10) Bacto Laboratories 212322) at 37 °C overnight.
(§11) The resultant mid-log phase cultures were diluted
(§12) Gram-negative and Gram-positive bacteria, respectively.
(§13) final concentration range of 0.8 – 100 µM.
(§14) inhibitors as positive control. […]

[6] = tested on: E. coli tolC (efflux pump deficient); test: MIC against E. coli membrane mutants; assay type: cell-based, Escherichia coli
Experimental: as §5, §9, §10, §11, §12, §13, §14

[7] = Antimicrobial activity of cisplatin in all assays of the paper; assay type: cell-based
Experimental: Following a protocol previously reported by us we used larvae of the greater wax moth Galleria mellonella as a model organism for in vivo toxicity and efficacy.[20] […] Briefly, stock solutions of Pt1 and Pt2 were prepared in DMSO and diluted to final concentrations of 0.4 mM, 100 μM, 10 μM and 1 μM. Due to solubility limitations higher concentrations could not be evaluated. For each concentration five larvae were injected with 10 μL and monitored for 96 hours for survival and health using the G. mellonella Health Index Scoring System.[22]

[8] = tested on: Staphylococcus aureus ATCC 43300 (MRSA); test: microbe, parasite or virus in culture; assay type: cell-based
Experimental: as §1, §2, §3, §4, §5, §6, §7, §8

[9] = tested on: Candida albicans ATCC 90028; test: Antifungal MIC (CO-ADD screening); assay type: cell-based
Experimental: (§15) InChIKey: PHIWIZAHOBWKFJ-HPCBIOCFSA-N
(§16) Health Central Pathology. Candida albicans (ATCC 90028, NCCLS 11), Cryptococcus neoformans
as §5, §9, §10

[10] = tested on: Cryptococcus neoformans H99 ATCC 208821; test: Antifungal MIC (CO-ADD screening); assay type: cell-based
Experimental: as §15, §16, §5, §9, §10

[11] = tested on: HEK-293 ATCC CRL-1573 human embryonic kidney cells; assay type: cell-based
Experimental: As part of the CO‐ADD screening, all compounds that show any activity against a microbial strain are evaluated for their cytotoxicity against human embryonic kidney cells (HEK‐293) and for haemolysis against human red blood cells. None of the compounds tested for cytotoxicity (Pt1‐9 and Pd1) caused any significant cell death up to concentrations of 100 μM. […] We have also observed higher IC50 values for the methylated complexes Pt3 and Pt4 against HeLa cells in previous work.[16] […]
(§17) inhibitors as positive control.
(§18) Tamoxifen (Sigma T5648) was used
(§19) as internal control on each plate.
in a Neubauer haemocytometer. […]

human red blood cells = test: Haemolysis assay; assay type: cell-based; conditions: for Haemolysis HC10: concentration inducing 10 % haemolysis; for Haemolysis HC50: concentration inducing 50 % haemolysis
Experimental: As part of the CO‐ADD screening, all compounds that show any activity against a microbial strain are evaluated for their cytotoxicity against human embryonic kidney cells (HEK‐293) and for haemolysis against human red blood cells. None of the compounds tested for cytotoxicity (Pt1‐9 and Pd1) caused any significant cell death up to concentrations of 100 μM. […] We have also observed higher IC50 values for the methylated complexes Pt3 and Pt4 against HeLa cells in previous work.[16]
as §11, §12, §13, §17, §18, §19
in a Neubauer haemocytometer.
incubated for 1 h at 37 °C, without shaking.
HC10 and HC50 (concentration at which 10%
for top, bottom and slope using Prism 8. […]

[12] = tested on: Staphylococcus aureus ATCC 25923, MSSA; test: Antibacterial MIC assay, Gram-positive panel; assay type: cell-based; conditions: Table S1 panel; n=4
Source text: (§20) Bis(dimethyl-η4)-((1Z,1'E,5Z,5'E)-(1,1'-bi(cyclooctadiene))diplatinum(II) (Pt14) Smiles: C1C=CCCC(=CC1)C1=CCCC=CCC1.C[Pt]C.C[Pt]C
as §15
(§21) Link to selected data that was repeated to approve the identity of the compounds: https://dx.doi.org/10.14272/PHIWIZAHOBWKFJ-HPCBIOCFSA-N.1
as §3, §4, §5, §6, §7, §8

[13] = tested on: Staphylococcus aureus VRS 1, VRSA (VanA); test: Antibacterial MIC assay, Gram-positive panel; assay type: cell-based; conditions: Table S1 panel; n=4
Source text: as §20, §15, §21, §3, §4, §5, §6, §7, §8

[14] = tested on: Enterococcus faecalis ATCC 29212, control strain; test: Antibacterial MIC assay, Gram-positive panel; assay type: cell-based; conditions: Table S1 panel; n=4
Experimental: as §2, §3, §4, §5, §6, §7, §8

[15] = tested on: Enterococcus faecalis Clinical Isolate, VRE (VanB); test: Antibacterial MIC assay, Gram-positive panel; assay type: cell-based; conditions: Table S1 panel; n=4
Experimental: as §2, §3, §4, §5, §6, §7, §8

[16] = tested on: Enterococcus faecium ATCC 35667, type strain; test: Antibacterial MIC assay, Gram-positive panel; assay type: cell-based; conditions: Table S1 panel; n=4
Experimental: as §2, §3, §4, §5, §6, §7, §8

[17] = tested on: Enterococcus faecium Clinical Isolate, VRE (VanA); test: Antibacterial MIC assay, Gram-positive panel; assay type: cell-based; conditions: Table S1 panel; n=4
Experimental: as §2, §3, §4, §5, §6, §7, §8

[18] = tested on: Staphylococcus epidermidis ATCC 14990, type strain; test: Antibacterial MIC assay, Gram-positive panel; assay type: cell-based; conditions: Table S1 panel; n=4
Experimental: as §2, §3, §4, §5, §6, §7, §8

[19] = tested on: Staphylococcus epidermidis NRS 60, VISE; test: Antibacterial MIC assay, Gram-positive panel; assay type: cell-based; conditions: Table S1 panel; n=4
Experimental: as §2, §3, §4, §5, §6, §7, §8

[20] = tested on: B. subtilis ATCC 6051 type strain; test: MIC in the presence of human serum (serum reversal); assay type: cell-based, Bacillus subtilis; conditions: 10% serum
Source text: (§22) To obtain some initial insight into the apparent disparity between in vitro and in vivo results, we repeated the MIC experiments against four selected Gram‐positive strains in the presence of 10 % or 50 % human serum (Table S3). Pt1 and Pt2 maintained some antibacterial activity against B. subtilis in the presence of 10 % serum, but a complete loss of activity was observed against MRSA and GISA (50 % serum), and VRE (10 % serum). […] Systemic administration is therefore unlikely to be a suitable administration route for this class of compounds unless an alternative formulation that can prevent serum binding (e. g. by lipid or nanoparticle encapsulation) can be found. […] Further in vivo studies should therefore focus on more suitable disease models. […]
as §5, §9, §10, §11, §12, §13, §14

[21] = tested on: S. aureus ATCC 43300 MRSA; test: as above; assay type: cell-based, Staphylococcus aureus; conditions: 50% serum
Source text: as §22, §5, §9, §10, §11, §12, §13, §14

S. aureus NRS 17 GISA = test: as above; assay type: cell-based, Staphylococcus aureus; conditions: 50% serum
Source text: as §22, §5, §9, §10, §11, §12, §13, §14

[22] = tested on: E. faecium ATCC 51559 MDR, VRE; test: as above; assay type: cell-based, Enterococcus faecium; conditions: 10% serum
Source text: as §22, §5, §9, §10, §11, §12, §13, §14

Colistin [reference compound]
MIC Ab ([1]; control antibiotic): 0.25 µg/mL
MIC Ec ([2]; control antibiotic): 0.125 µg/mL
MIC Pa ([3]; control antibiotic): 0.25 µg/mL
MIC Kp ([4]; CO‐ADD screening, control antibiotic): 0.25 µg/mL
MIC E. coli lpxC ([5]; Table S2, colistin control): 0.03 µg/mL
MIC E. coli TolC ([6]; Table S2, colistin control): 0.03 µg/mL

N.N.[Cl][Pt][Cl] [cisplatin]
antimicrobial activity [7]: no antimicrobial activity

C1=CCCC=CCC1.[CH3][Pt][C](F)(C(F)(F)F)C(F)(F)F [Pt6]
MIC Sa ([8]; CO‐ADD screening): 10 µM
MIC ([8]; Table S1 panel, n=2): 6.25 µM
MIC Ab [1]: >20 µM
MIC Ec [2]: >20 µM
MIC Pa [3]: >20 µM
MIC Kp [4]: >20 µM
MIC Ca [9]: 20 µM
MIC Cn [10]: 20 µM
CC50 [11]: > 100 µM
Haemolysis HC10 (human red blood cells): >100 µM
Haemolysis HC50 (human red blood cells): >100 µM
MIC [12]: 100 µM
MIC [13]: 200 µM
MIC [14]: > 200 µM
MIC [15]: > 200 µM
MIC [16]: > 200 µM
MIC [17]: 200 µM
MIC [18]: 100 µM
MIC [19]: 200 µM
MIC E. coli TolC ([6]; Table S2): > 200 µM
MIC in the presence of human serum [20]: > 200 µM
MIC in the presence of human serum [21]: > 200 µM
MIC in the presence of human serum (S. aureus NRS 17 GISA): > 200 µM
MIC in the presence of human serum [22]: > 200 µM

C1=CCCC=CCC1.[CH3][Pt][CH3] [Pt3]
CC50 [11]: > 100 µM
Haemolysis HC10 (human red blood cells): >100 µM
Haemolysis HC50 (human red blood cells): >100 µM
MIC [12]: 50 µM
MIC [13]: > 200 µM
MIC [15]: 200 µM
MIC [16]: 200 µM
MIC [18]: 6.25 µM
MIC [19]: 25 µM
MIC E. coli lpxC ([5]; Table S2): 200 µM
MIC E. coli TolC ([6]; Table S2): > 200 µM
MIC in the presence of human serum [20]: > 200 µM
MIC in the presence of human serum [21]: > 200 µM
MIC in the presence of human serum (S. aureus NRS 17 GISA): > 200 µM
MIC in the presence of human serum [22]: > 200 µM
